Experimental data: publication PMC9606955, “In Vitro Activity of Essential Oils Distilled from Colombian Plants against Candida auris and Other Candida Species with Different Antifungal Susceptibility Profiles” (Molecules, 2022)
Values after ≈ are worked out from the molar mass of the structure shown.

Assays:
Experiment in all cases: MIC, CLSI M27 broth microdilution
C. krusei ATCC 6258 = format: cell-based, Candida krusei; settings: C. krusei ATCC 6258, antifungal drugs
Excerpt: (§1) The fungal strains used in this study were C. albicans ATCC 10231, C. albicans ATCC 64550, C. parapsilosis ATCC 22019, C. tropicalis ATCC 750, C. tropicalis ATCC 200956 (resistant to azoles and AMB), C. glabrata LMDM 34 (resistant to echinocandins), C. metapsilosis MUM 15.12, C. orthopsilosis MUM 17.13, C. lusitaniae MUM 17.08, C. krusei ATCC 6258 (Issatchenkia orientalis ATCC 6258), and C. auris CDC B11903. Additionally, nine clinical isolates were included: C. parapsilosis Synlab 406 (FLC-resistant) and eight C. auris isolates identified by MALDI-TOF MS (Bruker Daltonics, Bremen, Germany) according to Zhao et al.. These yeasts were cultured on Sabouraud Dextrose Agar (SDA; Sigma-Aldrich, St. Louis, MO, USA) for 24 h at 35 °C.
(§2) Antifungal susceptibility testing was performed according to Clinical and Laboratory Standards Institute M27, 4th Edition (CLSI standard M27, 4th Edition). Some modifications were applied for evaluation of the antifungal activity of EOs and terpenes. Initially, a screening was carried out to determine the antifungal activity of the EOs and of commercial terpenes. Stock concentrations of EOs and terpenes were prepared at 512 µg/mL and an inoculum of 2.5 × 10^3 CFU/mL of each yeast was prepared in RPMI 1640-MOPS (Sigma- Aldrich St. Louis, MO, USA). Thereafter, 100 µL of each stock solution of EOs or terpenes was dispensed in 96-well microdilution plates (Corning®, Costar®, NY, USA) and 100 µL of each yeast inoculum was added. […] Microdilution plates were incubated at 35 °C and, after 24 h, the presence or absence of growth was visually checked using a manual mirror viewer and then compared with the amount of growth in the control (no EO or terpene). Compounds able to inhibit yeast growth were tested to determine the minimal inhibitory concentration (MIC) as follows: 100 µL of 10 two-fold dilutions of the EOs or commercial terpenes was dispensed in 96-well microplates and the yeast inoculum was added. Final concentrations of the EOs or terpenes ranged from 0.5 µg/mL to 256 µg/mL. Microdilution plates were incubated at 35 °C for 24 h. MICs were visually determined at the lowest concentration that produced visual inhibition compared to the growth control. The assays were performed at least three times in duplicate on different days. The results were expressed as geometric means (GM) and ranges. As an antifungal susceptibility testing control, the activity of ITC and AMB against the reference strains C. krusei ATCC 6258 and C. parapsilosis ATCC 22019 was evaluated in all experiments following the CLSI standard M27, 4th Edition. It was mandatory that the MIC values remained in the accepted range.

[1] = system: C. tropicalis ATCC 200956; format: cell-based, Candida tropicalis; settings: C. tropicalis ATCC 200956, antifungal drugs
Excerpt: as §1, §2

C. tropicalis ATCC 750 = format: cell-based, Candida tropicalis; settings: antifungal drugs
Excerpt: as §1, §2

[2] = system: C. metapsilosis MUM 15.12; format: cell-based, Candida metapsilosis; settings: C. metapsilosis MUM 15.12, antifungal drugs
Excerpt: as §1, §2

C. lusitaniae MUM 17.08 = format: cell-based, Candida lusitaniae; settings: C. lusitaniae MUM 17.08, antifungal drugs
Excerpt: as §1, §2

C. auris CDC B11903 = format: cell-based, Candida auris; settings: C. auris CDCB11903, antifungal drugs
Excerpt: as §1, §2

C. auris Ca 17 = format: cell-based, Candida auris; settings: C. auris Ca 17, antifungal drugs
Excerpt: as §1, §2

C. auris Ca 1 = format: cell-based, Candida auris; settings: C. auris Ca 1, antifungal drugs
Excerpt: as §1, §2

C. auris Ca 46 = format: cell-based, Candida auris; settings: C. auris Ca 46, antifungal drugs
Excerpt: as §1, §2

C. auris Ca 32 = format: cell-based, Candida auris; settings: C. auris Ca 32, antifungal drugs
Excerpt: as §1, §2

C. auris Ca 10 = format: cell-based, Candida auris; settings: antifungal drugs
Excerpt: as §1, §2

C. auris Ca 9 = format: cell-based, Candida auris; settings: C. auris Ca 9, antifungal drugs
Excerpt: as §1, §2

C. auris Ca 45 = format: cell-based, Candida auris; settings: C. auris Ca 45, antifungal drugs
Excerpt: as §1, §2

C. auris Ca 41 = format: cell-based, Candida auris; settings: C. auris Ca 41, antifungal drugs
Excerpt: as §1, §2

[3] = system: C. parapsilosis ATCC 22019; format: cell-based, Candida parapsilosis; settings: antifungal drugs
Excerpt: as §1, §2

[4] = system: C. parapsilosis Synlab 406; format: cell-based, Candida parapsilosis; settings: C. parapsilosis Synlab 406, antifungal drugs
Excerpt: as §1, §2

C. albicans ATCC 10231 = format: cell-based, Candida albicans; settings: antifungal drugs
Excerpt: as §1, §2

C. albicans ATCC 64550 = format: cell-based, Candida albicans; settings: antifungal drugs
Excerpt: as §1, §2

C. glabrata LMDM 34 = format: cell-based, Candida glabrata
Excerpt: as §1, §2

[5] = system: C. orthopsilosis MUM 17.13; format: cell-based, Candida orthopsilosis; settings: C. orthopsilosis MUM 17.13, antifungal drugs
Excerpt: as §1, §2

**Q.** For `CC[C@H](C)C[C@H](C)CCCCCCCCC(=O)N[C@H]1C[C@@H](O)[C@@H](NCCN)NC(=O)[C@@H]2[C@@H](O)CCN2C(=O)[C@H]([C@H](O)CCN)NC(=O)[C@H]([C@H](O)[C@@H](O)c2ccc(O)cc2)NC(=O)[C@@H]2C[C@@H](O)CN2C(=O)[C@H]([C@@H](C)O)NC1=O` [CSF, caspofungin], which “MIC Range” value (C. krusei ATCC 6258) is on record?
**A.** The value was 1 µg/mL (≈ 0.915 µM).

**Q.** What about the MIC (C. krusei ATCC 6258; Pichia kudriavzevii, ATCC6258, geometric mean, read-out: MIC GM) of the same compound?
**A.** The MIC was 1 µg/mL (≈ 0.915 µM).

**Q.** And the “MIC Range” value [1]?
**A.** The value was 0.5 µg/mL (≈ 0.457 µM).

**Q.** What about the MIC ([1]; Candida tropicalis, ATCC200956, geometric mean, read-out: MIC GM) of the same compound?
**A.** The MIC was 0.5 µg/mL (≈ 0.457 µM).

**Q.** And the MIC (C. tropicalis ATCC 750; Candida tropicalis, ATCC750, geometric mean)?
**A.** The MIC was 0.35 µg/mL (≈ 0.32 µM).

**Q.** What about the “MIC Range” value (C. tropicalis ATCC 750) of the same compound?
**A.** Its value is 0.25 to 0.5 µg/mL.

**Q.** And the “MIC Range” value [2]?
**A.** Its value is 1 µg/mL (≈ 0.915 µM).

**Q.** What about the MIC ([2]; Lodderomyces metapsilosis, MUM15.12, geometric mean, read-out: MIC GM) of the same compound?
**A.** The MIC was 1 µg/mL (≈ 0.915 µM).

**Q.** And the “MIC Range” value (C. lusitaniae MUM 17.08)?
**A.** Its value is 1 µg/mL (≈ 0.915 µM).

**Q.** What about the MIC (C. lusitaniae MUM 17.08; Clavispora lusitaniae, MUM17.08, geometric mean, read-out: MIC GM) of the same compound?
**A.** The MIC was 1 µg/mL (≈ 0.915 µM).

**Q.** And the “MIC Range” value (C. auris CDC B11903)?
**A.** Its value is 0.5 µg/mL (≈ 0.457 µM).

**Q.** And the MIC (C. auris CDC B11903; Candidozyma auris, geometric mean, read-out: MIC GM)?
**A.** The MIC was 0.5 µg/mL (≈ 0.457 µM).

**Q.** And the “MIC Range” value (C. auris Ca 17)?
**A.** The value was 0.5 µg/mL (≈ 0.457 µM).

**Q.** And the MIC (C. auris Ca 17; Candidozyma auris, CA17, geometric mean, read-out: MIC GM)?
**A.** The MIC was 0.5 µg/mL (≈ 0.457 µM).

**Q.** And the “MIC Range” value (C. auris Ca 1)?
**A.** Its value is 0.5 µg/mL (≈ 0.457 µM).

**Q.** What about the MIC (C. auris Ca 1; Candidozyma auris, CA1, geometric mean, read-out: MIC GM) of the same compound?
**A.** The MIC was 0.5 µg/mL (≈ 0.457 µM).

**Q.** And the “MIC Range” value (C. auris Ca 46)?
**A.** The value was 0.5 µg/mL (≈ 0.457 µM).

**Q.** And the MIC (C. auris Ca 46; Candidozyma auris, CA46, geometric mean, read-out: MIC GM)?
**A.** Its MIC is 0.5 µg/mL (≈ 0.457 µM).

**Q.** And the “MIC Range” value (C. auris Ca 32)?
**A.** The value was 0.5 µg/mL (≈ 0.457 µM).

**Q.** And the MIC (C. auris Ca 32; Candidozyma auris, CA32, geometric mean, read-out: MIC GM)?
**A.** Its MIC is 0.5 µg/mL (≈ 0.457 µM).

**Q.** What about the MIC (C. auris Ca 10; Candidozyma auris, CA10, geometric mean) of the same compound?
**A.** Its MIC is 0.7 µg/mL (≈ 0.64 µM).

**Q.** And the “MIC Range” value (C. auris Ca 10)?
**A.** The value was 0.5 to 1 µg/mL.

**Q.** What about the “MIC Range” value (C. auris Ca 9) of the same compound?
**A.** Its value is 0.5 µg/mL (≈ 0.457 µM).

**Q.** What about the MIC (C. auris Ca 9; Candidozyma auris, CA9, geometric mean, read-out: MIC GM) of the same compound?
**A.** The MIC was 0.5 µg/mL (≈ 0.457 µM).

**Q.** And the “MIC Range” value (C. auris Ca 45)?
**A.** The value was 0.5 µg/mL (≈ 0.457 µM).

**Q.** And the MIC (C. auris Ca 45; Candidozyma auris, CA45, geometric mean, read-out: MIC GM)?
**A.** The MIC was 0.5 µg/mL (≈ 0.457 µM).

**Q.** What about the “MIC Range” value (C. auris Ca 41) of the same compound?
**A.** Its value is 0.5 µg/mL (≈ 0.457 µM).

**Q.** What about the MIC (C. auris Ca 41; Candidozyma auris, CA41, geometric mean, read-out: MIC GM) of the same compound?
**A.** Its MIC is 0.5 µg/mL (≈ 0.457 µM).

**Q.** What about the MIC ([3]; Lodderomyces parapsilosis, ATCC22019, geometric mean) of the same compound?
**A.** The MIC was 1 µg/mL (≈ 0.915 µM).

**Q.** And the “MIC Range” value [3]?
**A.** Its value is 1 µg/mL (≈ 0.915 µM).

**Q.** And the “MIC Range” value [4]?
**A.** Its value is 2 µg/mL (≈ 1.83 µM).

**Q.** What about the MIC ([4]; Lodderomyces parapsilosis, SYNLAB406, geometric mean, read-out: MIC GM) of the same compound?
**A.** The MIC was 2 µg/mL (≈ 1.83 µM).

**Q.** And the MIC (C. albicans ATCC 10231; Candida albicans, ATCC10231, geometric mean)?
**A.** Its MIC is 0.18 µg/mL (≈ 0.165 µM).

**Q.** What about the “MIC Range” value (C. albicans ATCC 10231) of the same compound?
**A.** The value was 0.12 to 0.25 µg/mL.

**Q.** And the MIC (C. albicans ATCC 64550; Candida albicans, ATCC64550, geometric mean)?
**A.** Its MIC is 0.35 µg/mL (≈ 0.32 µM).

**Q.** What about the “MIC Range” value (C. albicans ATCC 64550) of the same compound?
**A.** The value was 0.25 to 0.5 µg/mL.

**Q.** What about the MIC (C. glabrata LMDM 34; Nakaseomyces glabratus, LMDM34, geometric mean, antifungal drugs) of the same compound?
**A.** The MIC was 8 µg/mL (≈ 7.32 µM).

**Q.** What about the “MIC Range” value (C. glabrata LMDM 34; antifungal drugs) of the same compound?
**A.** The value was 8 µg/mL (≈ 7.32 µM).

**Q.** And the susceptibility category (C. glabrata LMDM 34; resistance confirmed)?
**A.** The susceptibility category was “resistance”.

**Q.** What about the “MIC Range” value [5] of the same compound?
**A.** The value was 1 µg/mL (≈ 0.915 µM).

**Q.** What about the MIC ([5]; Lodderomyces orthopsilosis, MUM17.13, geometric mean, read-out: MIC GM) of the same compound?
**A.** The MIC was 1 µg/mL (≈ 0.915 µM).
